Measurements from BigSolDB 2.1.

O=[N+]([O-])O.c1ccc2c(CC3=NCCN3)cccc2c1
solubility (mole fraction)
Details | 278.15 K | 283.15 K | 288.15 K | 293.15 K | 298.15 K | 303.15 K | 308.15 K | 313.15 K | 318.15 K | 323.15 K
in 2-methoxyethanol | 0.0347 | 0.04 | 0.046 | 0.0515 | 0.0601 | 0.0662 | 0.0769 | 0.0883 | 0.101 | 0.115
in ethylene glycol | 0.0168 | 0.0212 | 0.0257 | 0.03 | 0.0359 | 0.0428 | 0.0506 | 0.061 | 0.0704 | 0.0823
in isopropanol | 0.000577 | 0.000763 | 0.00101 | 0.00132 | 0.00161 | 0.00206 | 0.00258 | 0.00327 | 0.00389 | 0.00489
in methanol | 0.0104 | 0.013 | 0.0155 | 0.0193 | 0.0234 | 0.029 | 0.0368 | 0.0473 | 0.057 | 0.0705
